Several values for one entry are separate records, joined by “and”; a condition that tells them apart may be missing. Identical values can stand only once. Inconclusive results and toxic doses are left out. How the source made its calls: active means survival T/C of 150% or more; inactive means T/C below 125% in these data.
System: CD2F1 mice, L1210 leukemia ip, survival T/C
Test: NCI In Vivo Anticancer Drug Screen. Data for tumor model L1210 Leukemia (intraperitoneal) in CD2F1 (CDF1) mice
Details: higher = longer survival
In short: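 Implant tumor; dose compound or vehicle; measure endpoint in both groups; report treated divided by control.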

[1] = endpoint: mean survival time, dose: 100.0 mg/kg/injection, schedule: Q04DX002 (ip), vehicle: saline with Tween-80
[2] = endpoint: mean survival time, dose: 12.5 mg/kg/injection, schedule: Q01DX009 (ip), vehicle: saline with Tween-80
[3] = endpoint: mean survival time, dose: 25.0 mg/kg/injection, schedule: Q01DX009 (ip), vehicle: saline with Tween-80
[4] = endpoint: mean survival time, dose: 50.0 mg/kg/injection, schedule: Q01DX009 (ip), vehicle: saline with Tween-80
[5] = endpoint: mean survival time, dose: 100.0 mg/kg/injection, schedule: Q01DX009 (ip), vehicle: saline with Tween-80
[6] = endpoint: mean survival time, dose: 200.0 mg/kg/injection, schedule: Q01DX009 (ip), vehicle: saline with Tween-80
[7] = endpoint: mean survival time, dose: 400.0 mg/kg/injection, schedule: Q01DX009 (ip), vehicle: saline with Tween-80
[8] = endpoint: mean survival time, dose: 100.0 mg/kg/injection, schedule: Q04DX003 (ip), vehicle: saline with Tween-80
[9] = endpoint: mean survival time, dose: 200.0 mg/kg/injection, schedule: Q04DX003 (ip), vehicle: saline with Tween-80
[10] = endpoint: mean survival time, dose: 200.0 mg/kg/injection, schedule: Q04DX002 (ip), vehicle: saline with Tween-80
[11] = endpoint: mean survival time, dose: 400.0 mg/kg/injection, schedule: Q04DX002 (ip), vehicle: saline with Tween-80

Measured: T/C

N#CCc1c(C(N)=O)ncn1C1OC(COP(=O)(O)O)C(O)C1O (centres undefined)
inactive: endpoint: median survival time, dose: 12.5 mg/kg/injection, schedule: Q01DX005 (ip), vehicle: water 109 % of control | endpoint: median survival time, dose: 25.0 mg/kg/injection, schedule: Q01DX005 (ip), vehicle: water 104 % of control | endpoint: median survival time, dose: 50.0 mg/kg/injection, schedule: Q01DX005 (ip), vehicle: water 103 % of control | endpoint: median survival time, dose: 100.0 mg/kg/injection, schedule: Q01DX005 (ip), vehicle: water 97 % of control | endpoint: median survival time, dose: 200.0 mg/kg/injection, schedule: Q01DX005 (ip), vehicle: water 97 % of control

NC(=O)c1ccc(OC(F)(F)C(F)Cl)cc1OC(F)(F)C(F)Cl (centres undefined)
inactive: endpoint: mean survival time, dose: 25.0 mg/kg/injection, schedule: Q04DX002 (ip), vehicle: saline with Tween-80 96 % of control | endpoint: mean survival time, dose: 50.0 mg/kg/injection, schedule: Q04DX002 (ip), vehicle: saline with Tween-80 101 % of control | [1] 101 % of control

CC(C)(C)OC(=O)C12CCCC(C(=O)OC(C)(C)C)(OO1)O2
inactive: endpoint: mean survival time, dose: 100.0 mg/kg/injection, schedule: Q01DX001 (ip), vehicle: saline 95 % of control | endpoint: mean survival time, dose: 200.0 mg/kg/injection, schedule: Q01DX001 (ip), vehicle: saline 95 % of control | endpoint: mean survival time, dose: 400.0 mg/kg/injection, schedule: Q01DX001 (ip), vehicle: saline 101 % of control

c1cc2c(cc1-c1nnc(-c3ccc4c(c3)OCO4)nn1)OCO2
inactive: endpoint: mean survival time, dose: 12.5 mg/kg/injection, schedule: Q01DX001 (ip), vehicle: saline with Tween-80 91 % of control | [2] 94 % of control | endpoint: mean survival time, dose: 25.0 mg/kg/injection, schedule: Q01DX001 (ip), vehicle: saline with Tween-80 90 % of control | [3] 96 % of control | endpoint: mean survival time, dose: 50.0 mg/kg/injection, schedule: Q01DX001 (ip), vehicle: saline with Tween-80 95 % of control | [4] 88 % of control

C1COC2(CCC3(CC2)OCCO3)O1
inactive: [5] 102 % of control | endpoint: mean survival time, dose: 100.0 mg/kg/injection, schedule: Q04DX003 (ip), vehicle: saline sonified 101 % of control | [6] 102 % of control | endpoint: mean survival time, dose: 200.0 mg/kg/injection, schedule: Q04DX003 (ip), vehicle: saline sonified 101 % of control | [7] 103 % of control | endpoint: mean survival time, dose: 400.0 mg/kg/injection, schedule: Q04DX003 (ip), vehicle: saline sonified 100 % of control

CC1CCc2ccccc2N1CCN (centres undefined)
inactive: endpoint: mean survival time, dose: 100.0 mg/kg/injection, schedule: Q04DX003 (ip), vehicle: Klucel (hydroxypropylcellulose) (HPC) 95 % of control

COc1ccc(-c2nnc(-c3ccc(OC)c(Cl)c3)nn2)cc1Cl
inactive: [8] 93 % of control | [9] 86 % of control

COC(c1ccccc1)C(C)O (centres undefined)
inactive: [4] 100 % of control | [5] 100 % of control | [6] 95 % of control

CC(C)OC(=O)Nc1ncn[nH]1
inactive: [1] 104 % of control | [10] 108 % of control | [11] 93 % of control

CCOP(=O)(C/C(=N\Nc1ccc([N+](=O)[O-])cc1[N+](=O)[O-])c1ccccc1)c1ccccc1 (centres undefined)
inactive: endpoint: mean survival time, dose: 100.0 mg/kg/injection, schedule: Q01DX001 (ip), vehicle: saline with Tween-80 90 % of control | endpoint: mean survival time, dose: 200.0 mg/kg/injection, schedule: Q01DX001 (ip), vehicle: saline with Tween-80 92 % of control | endpoint: mean survival time, dose: 400.0 mg/kg/injection, schedule: Q01DX001 (ip), vehicle: saline with Tween-80 97 % of control

CC(=O)OCC1OC(n2cc(CBr)nn2)C(OC(C)=O)C(OC(C)=O)C1OC(C)=O (centres undefined)
inactive: endpoint: mean survival time, dose: 3.12 mg/kg/injection, schedule: Q01DX009 (ip), vehicle: saline with Tween-80 94 % of control and 96 % of control | endpoint: mean survival time, dose: 6.25 mg/kg/injection, schedule: Q01DX009 (ip), vehicle: saline with Tween-80 98 % of control and 102 % of control | endpoint: mean survival time, dose: 6.25 mg/kg/injection, schedule: Q01DX009 (ip), vehicle: suspension in saline 101 % of control | endpoint: mean survival time, dose: 6.25 mg/kg/injection, schedule: Q04DX003 (ip), vehicle: suspension in saline 100 % of control | endpoint: mean survival time, dose: 7.5 mg/kg/injection, schedule: Q01DX009 (ip), vehicle: saline 98 % of control | [2] 94 % of control and 104 % of control | endpoint: mean survival time, dose: 12.5 mg/kg/injection, schedule: Q01DX009 (ip), vehicle: suspension in saline 102 % of control | endpoint: mean survival time, dose: 12.5 mg/kg/injection, schedule: Q04DX003 (ip), vehicle: suspension in saline 107 % of control | endpoint: mean survival time, dose: 15.0 mg/kg/injection, schedule: Q01DX009 (ip), vehicle: saline 100 % of control | [3] 102 % of control and 108 % of control | endpoint: mean survival time, dose: 25.0 mg/kg/injection, schedule: Q01DX009 (ip), vehicle: suspension in saline 101 % of control | endpoint: mean survival time, dose: 25.0 mg/kg/injection, schedule: Q04DX003 (ip), vehicle: suspension in saline 100 % of control | endpoint: mean survival time, dose: 30.0 mg/kg/injection, schedule: Q01DX009 (ip), vehicle: saline 98 % of control | [4] 95 % of control and 102 % of control | endpoint: mean survival time, dose: 50.0 mg/kg/injection, schedule: Q01DX009 (ip), vehicle: suspension in saline 96 % of control | endpoint: mean survival time, dose: 50.0 mg/kg/injection, schedule: Q04DX003 (ip), vehicle: suspension in saline 103 % of control | endpoint: mean survival time, dose: 60.0 mg/kg/injection, schedule: Q01DX009 (ip), vehicle: saline 102 % of control | [5] 102 % of control

Cc1cc(S(=O)(=O)c2ccc(O)c(C)c2)ccc1O
inactive: [1] 103 % of control | [10] 100 % of control | [11] 97 % of control

Cc1cc(=O)[nH]c(=S)[nH]1.[Pd]
inactive: endpoint: mean survival time, dose: 3.12 mg/kg/injection, schedule: Q04DX003 (ip), vehicle: saline 103 % of control | endpoint: mean survival time, dose: 6.25 mg/kg/injection, schedule: Q04DX003 (ip), vehicle: saline 108 % of control | endpoint: mean survival time, dose: 12.5 mg/kg/injection, schedule: Q04DX003 (ip), vehicle: saline 105 % of control | endpoint: mean survival time, dose: 25.0 mg/kg/injection, schedule: Q04DX003 (ip), vehicle: saline 100 % of control | endpoint: mean survival time, dose: 50.0 mg/kg/injection, schedule: Q04DX003 (ip), vehicle: saline 102 % of control | endpoint: mean survival time, dose: 100.0 mg/kg/injection, schedule: Q04DX003 (ip), vehicle: saline 102 % of control | endpoint: mean survival time, dose: 200.0 mg/kg/injection, schedule: Q04DX003 (ip), vehicle: saline 100 % of control

CC1(c2ccc(O)cc2)OCCCC1([NH-])C[NH-].[Cl][Pt+2][Cl] (centres undefined)
inactive: endpoint: median survival time, dose: 10.0 mg/kg/injection, schedule: Q04DX003 (ip), vehicle: saline 110 % of control | endpoint: median survival time, dose: 20.0 mg/kg/injection, schedule: Q04DX003 (ip), vehicle: saline 106 % of control | endpoint: median survival time, dose: 40.0 mg/kg/injection, schedule: Q04DX003 (ip), vehicle: saline 100 % of control | endpoint: median survival time, dose: 80.0 mg/kg/injection, schedule: Q04DX003 (ip), vehicle: saline with Tween-80 107 % of control | endpoint: median survival time, dose: 80.0 mg/kg/injection, schedule: Q04DX003 (ip), vehicle: saline 103 % of control | endpoint: median survival time, dose: 160.0 mg/kg/injection, schedule: Q04DX003 (ip), vehicle: saline with Tween-80 107 % of control | endpoint: median survival time, dose: 320.0 mg/kg/injection, schedule: Q04DX003 (ip), vehicle: saline with Tween-80 107 % of control

O=C(OCCO)c1ccccc1
inactive: [5] 98 % of control | [8] 95 % of control | [6] 97 % of control | [9] 98 % of control | [7] 97 % of control | endpoint: mean survival time, dose: 400.0 mg/kg/injection, schedule: Q04DX003 (ip), vehicle: saline with Tween-80 103 % of control

C=CC(=O)N1CCN(C(=O)C=C)c2cc(C)c(C)cc21
inactive: endpoint: mean survival time, dose: 25.0 mg/kg/injection, schedule: Q01DX009 (ip), vehicle: saline 101 % of control | endpoint: mean survival time, dose: 50.0 mg/kg/injection, schedule: Q01DX009 (ip), vehicle: saline 101 % of control | endpoint: mean survival time, dose: 100.0 mg/kg/injection, schedule: Q01DX009 (ip), vehicle: saline 100 % of control

— PubChem BioAssay AID256 (DTP/NCI, 2004)
